Test results from patent US20110034419A1, “Cardioprotective Drugs and Diagnostics for Assessing Risk of Cardiovascular Disease” (priority 2009, published 2011).

What was measured:
[1] = tested on: dermal fibroblasts; details: literature (Bu et al., 2006); cited from earlier work
[2] = tested on: Akt activation in HUVECs; assay: Multiplex bead array assay of Akt phosphorylation; format: cell-based, human; details: PTX 100 ng/ml 12 h, 3 min; for Inhibition of HDL-induced activation of Akt: antagonists added 15 min before HDL (containing 200 nM S1P); for Inhibition of S1P-induced activation of Akt: antagonists added 15 min before S1P (200 nM)
Procedure: (§1) The effect of S1P and HDL on activation of Erk1/2 (A-D) and Akt (E-H) in HUVECs was determined by multiplex bead array assay. In A-D, the values for the fold difference in Erk1/2 phosphorylation were derived from the level of phosphoErk1/2 fluorescence in S1P or HDL treated cells divided by the level of phosphoErk1/2 fluorescence in control cells. In E-G, the values for the fold increase in Akt phosphorylation were derived from the level of phosphoAkt fluorescence in cells treated with S1P or HDL divided by the level of phosphoAkt fluorescence measured in control cells. The data depicted in panels A, C, E and G is based on treating HUVECs for the indicated times with 833 nM S1P or 333 μg/ml HDL (containing 133 nM S1P). The data depicted in panels B, D, F and H is based on treating HUVECs with indicated concentrations of S1P or HDL for 3 min. The level of S1P in the 3-fold dilutions of HDL tested in panel H ranged from 12-337 nM. Data are shown from a representative experiment.
(§2) In A and B, pertussis toxin (PTX, 100 ng/ml) or the PTX buffer was added to endothelial cell basal medium (EBM) during the final 12 h of serum starvation. BSA, S1P (200 nM) or HDL (containing 200 nM S1P) were then added to the medium and allowed to incubate with the cells for 3 min. In C and D, the S1P1 antagonist 857390 or the S1P1/S1P3 antagonist or vehicle were added to the medium 15 min prior to addition of S1P or HDL and allowed to incubate with the cells for 3 min. The graphed values were derived from the level of phosphoErk1/2 or phosphoAkt fluorescence in S1P- or HDL-treated cells divided by the level of phosphoErk1/2 or phosphoAkt fluorescence in BSA treated cells. Data are shown from representative experiments, antagonists and inhibitor experiments were performed 2-4 times (e.g. PTX, n=3; S1P1 antagonist, n=4; S1P1/S1P3 antagonist, n=2). Each data point is an average from two independent wells.
Approach: A bead-based multiplex assay will be used to determine changes in phosphorylated Erk1/2, phosphorylated Akt, and total Erk and total Akt in endothelial cells in response to treatments with HDLs from dislipidemic subjects and synthetic HDLs containing defined amounts of S1P. These assays will be conducted essentially as described by (1). Briefly, HUVECs will be seeded into 24 well dishes (Corning) at 2×10^5 cells per well and grown for 18 h in endothelial growth medium-2 (EGM-2, Lonza). […] The cells will be extracted with Bio-Plex cell lysis buffer (Bio-Rad, Hercules, Calif.) and protein concentration determined by Bio-Rad DC Protein Assay (Bio-Rad). Levels of phospho-Erk1/2, total-Erk1/2 and phospho-Akt in the extracts will be determined by multiplex bead assay using kits (Bio-Rad) and a Bioplex-200 instrument (Bio-Rad).

[3] = tested on: Erk1/2 activation in HUVECs; assay: Multiplex bead array assay of Erk1/2 phosphorylation; format: cell-based, human; details: for Inhibition of HDL-induced activation of Erk1/2 / Inhibition of S1P-induced activation of Erk1/2: PTX 100 ng/ml 12 h, 3 min; for Inhibition of HDL-induced activation of Erk1/2: antagonists added 15 min before HDL (containing 200 nM S1P); for Inhibition of S1P-induced activation of Erk1/2: antagonists added 15 min before S1P (200 nM)
Procedure: as §1, §2
Approach: A bead-based multiplex assay will be used to determine changes in phosphorylated Erk1/2, phosphorylated Akt, and total Erk and total Akt in endothelial cells in response to treatments with HDLs from dislipidemic subjects and synthetic HDLs containing defined amounts of S1P. These assays will be conducted essentially as described by (1). Briefly, HUVECs will be seeded into 24 well dishes (Corning) at 2×10^5 cells per well and grown for 18 h in endothelial growth medium-2 (EGM-2, Lonza). The medium will then be replaced with endothelial basal medium (EBM) containing 0.1% FBS and the cells grown for 24 h. The medium will then be supplemented with HDL samples (i.e., CCHS subject serum-derived HDL freed of albumin- and apoB-containing lipoproteins) or synthetic HDLs (containing defined amounts of S1P). As described above, this will be done by removing a volume of the conditioned culture medium corresponding to that of the HDL to be added. The cells will be extracted with Bio-Plex cell lysis buffer (Bio-Rad, Hercules, Calif.) and protein concentration determined by Bio-Rad DC Protein Assay (Bio-Rad). Levels of phospho-Erk1/2, total-Erk1/2 and phospho-Akt in the extracts will be determined by multiplex bead assay using kits (Bio-Rad) and a Bioplex-200 instrument (Bio-Rad).

[4] = tested on: endothelial cell monolayers (HUVECs); assay: Electrical Cell Substrate Impedance Sensing (ECIS) assay of transendothelial electrical resistance (TEER); format: cell-based, human; details: for Inhibition of the TEER response to HDL / Inhibition of the TEER response to S1P: PTX 1 μg/ml, antagonists 10 μM; for Inhibition of the TEER response to HDL: HDL 1000 or 621 μg/ml; for Inhibition of the TEER response to S1P: S1P 833 nM or 250 nM
Procedure: Confluent endothelial monolayers were grown under serum-free conditions until a minimal TEER plateau had been reached. The cells were then incubated with S1P or HDL in the presence or absence of PTX (A and B) or S1P1 antagonists (C and D). In A and B, S1P was used at 833 nM, HDL at 1000 μg/ml (containing 400 nM S1P) and PTX at 1 μg/ml. In C and D, S1P was used at 250 nM, HDL at 621 μg/ml (containing 250 nM S1P), the S1P1 antagonist 857390 at 10 μM and the S1P1/S1P3 antagonist VPC23019 at 10 μM. As controls, monolayers were treated with BSA-containing serum free medium (SFM) plus or minus vehicle buffer. Each of the TEER tracings shown is an average of two replicate wells and representative of three independent experiments. Impedance values were normalized by dividing each value by the level of impedance measured just prior to the addition of effectors. […]
ECIS: Electrical cell substrate impedance sensing (ECIS) assays will be conducted essentially as described in (1). Briefly, 8W10E+ electrode arrays will be pre-coated with human fibronectin (Invitrogen, Carlsbad, Calif.) at 100 μg/ml in 0.15M NaCl, 0.01M Tris, pH 8.0. HUVECs in EGM-2 medium will be seeded into the wells at a density of 1×10^5 cells per well. Electrical resistance (impedance) will be measured every […] at a frequency of 15 kHz. For every 48 h of culture, 50% volume of medium will be replaced with fresh EGM-2. When the electrical resistance reaches a maximal plateau (−3 days) the medium will be replaced with serum-free endothelial basal medium (EBM; Lonza) containing 1× penicillin-streptomycin-glutamine (Invitrogen). Electrical resistance will be monitored until a minimal plateau is reached (˜24 h). Either HDL from CCHS subjects (depleted of albumin and apoB lipoproteins) or synthetic HDLs will be introduced into the culture medium by removing a volume corresponding to that of the HDL to be added. The maximum volume of each HDL added will not exceed 1/25 of the 400 μl volume of conditioned culture medium in each well. For experiments evaluating the effects of pertussis toxin (PTX), PTX (100 ng/ml) or the PTX buffer (50% glycerol with 50 mM Tris, 10 mM glycine, and 0.5M NaCl, pH 7.5) will be added to EBM during the final 12 h of serum starvation. S1P or HDL will then be added to the medium. Electrical resistance will be monitored through 5 h post addition of agents.

[5] = tested on: endothelial cell monolayers (HUVECs); details: literature (Schaphorst et al.; Xu et al.); cited from earlier work
[6] = tested on: lung capillary leakage; details: mice, lipopolysaccharide treatment; literature (Peng et al.); cited from earlier work

| Compound | Activation of ERK1/2 in dermal fibroblasts [1] | Induction of MMP1 expression in dermal fibroblasts [1] | Inhibition of HDL-induced activation of Akt [2] | Inhibition of S1P-induced activation of Akt [2] | Inhibition of HDL-induced activation of Erk1/2 [3] | Inhibition of S1P-induced activation of Erk1/2 [3] | Inhibition of the TEER response to HDL [4] | Inhibition of the TEER response to S1P [4] | Effect on Erk1/2 phosphorylation ([3]; 833 nM S1P or 333 μg/ml HDL, time course) | Dose dependence of Erk1/2 activation response ([3]; 3 min treatment) | Effect on endothelial barrier activity (TEER) in cultured endothelial cells [5] | Effect on lung capillary leakage [6] | Effect on transendothelial electrical resistance (TEER) ([4]; confluent endothelial monolayers in serum free medium, substance added alone) |
| --- | --- | --- | --- | --- | --- | --- | --- | --- | --- | --- | --- | --- | --- |
| CCCCCCCCCCCCCCC[C@@H](O)[C@@H](N)COP(=O)(O)O [DH-S1P, dihydro-S1P] | mediate activation ERK1/2 | induction of matrix metalloproteinase 1 (MMP1) expression | – | – | – | – | – | – | – | – | – | – | – |
| pertussis toxin [PTX] | – | – | inhibited | inhibited | inhibited | inhibited | completely abrogated | inhibited | – | – | – | – | – |
| CCCCCCCCc1cccc(NC(=O)[C@H](N)COP(=O)(O)O)c1 [VPC23019] | – | – | inhibited | inhibited | inhibited | inhibited | inhibited | inhibited | – | – | – | – | – |
| CCCCCCCCCCCCC/C=C/[C@@H](O)[C@@H](N)COP(=O)(O)O [S1P, sphingosine 1-phosphate] | not reproduced | not reproduced | – | – | – | – | – | – | transient increase in Erk1/2 phosphorylation | dose dependent | increase endothelial barrier activity | greatly reduces lung capillary leakage | dose-dependent increase in TEER |
